Data published in ChEMBL document CHEMBL1201862, “PubChem BioAssay data set” (2004).
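Five compound concentrations were applied to cells in 96-well plates for 48 hours; endpoints were derived by simple linear interpolation of the resulting dose-response curve. GI50 = concentration required for 50% inhibition of growth.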 Calls of active or inactive are those of the source. Rule as the data show it: active = GI50 up to about 1.1 µM and inactive = higher.

Legend:
Test in all cases: NCI anticancer screen, dose series, 48 h
ACHN = system: ACHN
COLO 205 = system: COLO 205
HL-60 = system: HL-60
HOP-62 = system: HOP-62
IGROV-1 = system: IGROV-1
OVCAR-3 = system: OVCAR-3
OVCAR-5 = system: OVCAR-5
RPMI-8226 = system: RPMI-8226
SF-295 = system: SF-295
SF-539 = system: SF-539
SK-MEL-28 = system: SK-MEL-28
SK-OV-3 = system: SK-OV-3
SW-620 = system: SW-620
TK-10 = system: TK-10
U-251 = system: U-251
UACC-62 = system: UACC-62
HCC 2998 = system: HCC 2998
SNB-75 = system: SNB-75
UO-31 = system: UO-31

Measured: GI50

O=C1NCN(c2ccccc2)C12CCN(CCc1ccc3[nH]c(=S)[nH]c3c1)CC2
inactive: ACHN > 100 µM | COLO 205 16.3 µM | HL-60 29.1 µM | HOP-62 > 100 µM | IGROV-1 37.6 µM | OVCAR-3 48 µM | OVCAR-5 > 100 µM | RPMI-8226 22.3 µM | SF-295 51.3 µM | SF-539 22.1 µM | SK-MEL-28 4.12 µM | SK-OV-3 > 100 µM | SW-620 11.9 µM | TK-10 24.7 µM | U-251 29.4 µM | UACC-62 64.9 µM

O=C(/N=C(/Nc1ccccc1)SCCS/C(=N\C(=O)c1ccccc1)Nc1ccccc1)c1ccccc1
inactive: ACHN 55.7 µM | COLO 205 > 100 µM | HCC 2998 34.9 µM | HOP-62 86.5 µM | IGROV-1 > 100 µM | OVCAR-3 67.9 µM | OVCAR-5 > 100 µM | RPMI-8226 48.2 µM | SF-295 58.9 µM | SF-539 68.2 µM | SK-MEL-28 49.8 µM | SNB-75 29.5 µM | SW-620 > 100 µM | TK-10 > 100 µM | U-251 79.8 µM | UACC-62 52.2 µM | UO-31 32.9 µM

O=c1/c(=C/c2ccc(Cl)cc2Cl)sc2nc3ccccc3n12
inactive: ACHN > 100 µM | COLO 205 > 100 µM | HCC 2998 > 100 µM | HL-60 > 100 µM | HOP-62 > 100 µM | IGROV-1 > 100 µM | OVCAR-3 > 100 µM | OVCAR-5 > 100 µM | SF-295 > 100 µM | SF-539 > 100 µM | SK-MEL-28 > 100 µM | SK-OV-3 > 100 µM | SNB-75 > 100 µM | SW-620 > 100 µM | TK-10 > 100 µM | U-251 > 100 µM | UACC-62 > 100 µM | UO-31 > 100 µM

Cc1ccccc1[P+](C)(c1ccccc1C)c1ccccc1C
inactive: ACHN 15.8 µM | COLO 205 10.6 µM | HCC 2998 2.77 µM | HOP-62 23.9 µM | IGROV-1 14.9 µM | OVCAR-3 7.94 µM | OVCAR-5 13.6 µM | RPMI-8226 1.21 µM | SF-539 16.5 µM | SK-MEL-28 11.6 µM | SK-OV-3 33.2 µM | SNB-75 12.6 µM | SW-620 13.6 µM | TK-10 8.26 µM | U-251 6.3 µM | UACC-62 5.79 µM | UO-31 17.7 µM

CC(=O)O[C@H]1CC2C=CC3C(CCC31)O2 (stereo partly drawn)
inactive: ACHN > 100 µM | COLO 205 > 100 µM | HCC 2998 > 100 µM | HL-60 80 µM | HOP-62 > 100 µM | IGROV-1 > 100 µM | OVCAR-3 > 100 µM | SK-MEL-28 > 100 µM | SK-OV-3 > 100 µM | SNB-75 > 100 µM | SW-620 > 100 µM | TK-10 > 100 µM | U-251 > 100 µM | UACC-62 > 100 µM | UO-31 > 100 µM

C#CCn1c(=O)c2cc(OC)c(OC)cc2n(CC#C)c1=O
inactive: ACHN > 10 µM | COLO 205 > 10 µM | HCC 2998 > 10 µM | HOP-62 > 10 µM | IGROV-1 > 10 µM | OVCAR-3 > 10 µM | OVCAR-5 > 10 µM | RPMI-8226 > 10 µM | SF-295 > 10 µM | SF-539 > 10 µM | SK-MEL-28 > 10 µM | SK-OV-3 > 10 µM | SNB-75 > 10 µM | SW-620 > 10 µM | TK-10 > 10 µM | U-251 > 10 µM | UO-31 > 10 µM

O=c1oc(-c2ccccc2)c(-c2ccccc2)n1-c1ccc(Br)cc1
inactive: ACHN > 100 µM | COLO 205 > 100 µM | HL-60 39.5 µM | HOP-62 33.2 µM | IGROV-1 29.6 µM | OVCAR-3 47.5 µM | OVCAR-5 > 100 µM | SF-295 28.1 µM | SF-539 20.6 µM | SK-MEL-28 > 100 µM | SK-OV-3 31.1 µM | SNB-75 12 µM | SW-620 > 100 µM | TK-10 31.8 µM | U-251 24.2 µM | UACC-62 73.8 µM | UO-31 > 100 µM

CC(=O)/N=C1\NC(=O)/C(=C/c2ccccc2Cl)N1C
inactive: ACHN > 100 µM | COLO 205 > 100 µM | HCC 2998 > 100 µM | HL-60 > 100 µM | HOP-62 > 100 µM | IGROV-1 > 100 µM | OVCAR-3 > 100 µM | OVCAR-5 > 100 µM | SF-295 > 100 µM | SF-539 > 100 µM | SK-MEL-28 > 100 µM | SK-OV-3 > 100 µM | SNB-75 > 100 µM | SW-620 > 100 µM | TK-10 > 100 µM | U-251 > 100 µM | UACC-62 > 100 µM | UO-31 > 100 µM

NC(Cc1ccc(S(=O)(=O)O)cc1)C(=O)NC(Cc1ccc(S(=O)(=O)O)cc1)C(=O)O (stereo not drawn)
inactive: ACHN > 100 µM | COLO 205 > 100 µM | HCC 2998 > 100 µM | HL-60 > 100 µM | HOP-62 > 100 µM | IGROV-1 > 100 µM | OVCAR-3 > 100 µM | OVCAR-5 > 100 µM | RPMI-8226 > 100 µM | SF-295 > 100 µM | SF-539 > 100 µM | SK-MEL-28 > 100 µM | SNB-75 > 100 µM | SW-620 > 100 µM | TK-10 > 100 µM | U-251 > 100 µM | UACC-62 > 100 µM | UO-31 > 100 µM

COc1cnc2oc3ccc(O)cc3c2c1-c1ccccc1
inactive: ACHN > 100 µM | COLO 205 30.6 µM | HCC 2998 27.7 µM | HL-60 > 100 µM | HOP-62 24 µM | OVCAR-3 4.27 µM | OVCAR-5 24.1 µM | RPMI-8226 > 100 µM | SF-295 83 µM | SF-539 > 100 µM | SK-MEL-28 > 100 µM | SK-OV-3 > 100 µM | SNB-75 > 100 µM | SW-620 > 100 µM | TK-10 > 100 µM | U-251 > 100 µM | UO-31 66.7 µM

Nc1nc(Cl)cc(OCC2(CO)CCCC2)n1
inactive: ACHN > 100 µM | HCC 2998 > 100 µM | HL-60 > 100 µM | HOP-62 > 100 µM | IGROV-1 > 100 µM | OVCAR-3 > 100 µM | OVCAR-5 > 100 µM | RPMI-8226 > 100 µM | SF-295 > 100 µM | SF-539 > 100 µM | SK-MEL-28 > 100 µM | SNB-75 > 100 µM | SW-620 > 100 µM | TK-10 > 100 µM | U-251 > 100 µM

O=C(CC1(O)C(=O)Nc2c(Cl)ccc(Cl)c21)c1ccc(Cl)cc1Cl (stereo not drawn)
inactive: ACHN 16.6 µM | COLO 205 17.6 µM | HCC 2998 15.7 µM | HOP-62 24 µM | IGROV-1 18.3 µM | OVCAR-3 16.2 µM | OVCAR-5 16.6 µM | RPMI-8226 19.5 µM | SF-295 23.2 µM | SF-539 19.2 µM | SK-MEL-28 21.7 µM | SK-OV-3 21.9 µM | SNB-75 16.7 µM | SW-620 14.1 µM | TK-10 50.1 µM | U-251 10 µM | UACC-62 16.1 µM | UO-31 20.7 µM
